# Laboratory results taken from article PMC6354011 (Scientific Reports, 2019).
# Several values for one entry are separate records, joined by “and”; a condition that tells them apart may be missing. Equal entries are not always repeated. Where two headings read alike, the source gives them in different places.
# What was measured:
# [1] = target: T1, equine serum butyrylcholinesterase (BChE, EC 3.1.1.8) (Equus caballus, UniProt P81908); assay: biochemical; type: biochemical; settings: for BChE % inhibition: single read
# T1 construct: equine serum butyrylcholinesterase (BChE, EC 3.1.1.8); purchased Sigma-Aldrich (USA); host or cells: equine serum
# From the text: (§1) Ellman’s colorimetric method with minor modification was employed in the determination of AChE and BChE inhibitory activities. Electric eel acetylcholinesterase (AChE, EC 3.1.1.7), equine serum butyrylcholinesterase (BChE, EC 3.1.1.8), 5,5′-Dithiobis(2-nitrobenzoic acid) (DTNB) and sodium phosphate dibasic (Na2HPO4) were purchased from Sigma-Aldrich (USA). S-butyrylthiocholine chloride (BTCC) from Sigma-Aldrich (Switzerland), acetylthiocholine iodide (ATCI) from Sigma-Aldrich (United Kingdom) and sodium phosphate monobasic (NaH2PO4) from Sigma-Aldrich (Germany) were purchased. […] Ethanol was used to replace the sample as a control in this assay.
# [2] = target: T2, Electric eel acetylcholinesterase (AChE, EC 3.1.1.7) (Electrophorus electricus, UniProt O42275); assay: biochemical
# T2 construct: purchased Sigma-Aldrich (USA)
# From the text: as §1
# [3] = mean ± SD, n = 3, read-out: IC50 (µM) BChE
# [4] = average of three reads, read-out: AChE IC50 (µM) Average
# [5] = average of three reads, read-out: AChE IC50 (µg/mL) Average (converted)
# [6] = first read, read-out: AChE IC50 (µM) First read
# [7] = mean ± SD, n = 3, read-out: IC50 (µM) AChE
# [8] = second read, read-out: AChE IC50 (µM) Second read
# [9] = second read, read-out: AChE IC50 (µg/mL) Second read (converted)
# [10] = third read, read-out: AChE IC50 (µM) Third read
# [11] = third read, read-out: AChE IC50 (µg/mL) Third read (converted)
# [12] = N = 3, unit not given (µg/mL scale), read-out: BChE IC50, Tukey HSD homogeneous subsets (group mean) (converted)
# [13] = first read, read-out: AChE IC50 (µg/mL) First read (converted)
# T2 sequence (O42275 24-633): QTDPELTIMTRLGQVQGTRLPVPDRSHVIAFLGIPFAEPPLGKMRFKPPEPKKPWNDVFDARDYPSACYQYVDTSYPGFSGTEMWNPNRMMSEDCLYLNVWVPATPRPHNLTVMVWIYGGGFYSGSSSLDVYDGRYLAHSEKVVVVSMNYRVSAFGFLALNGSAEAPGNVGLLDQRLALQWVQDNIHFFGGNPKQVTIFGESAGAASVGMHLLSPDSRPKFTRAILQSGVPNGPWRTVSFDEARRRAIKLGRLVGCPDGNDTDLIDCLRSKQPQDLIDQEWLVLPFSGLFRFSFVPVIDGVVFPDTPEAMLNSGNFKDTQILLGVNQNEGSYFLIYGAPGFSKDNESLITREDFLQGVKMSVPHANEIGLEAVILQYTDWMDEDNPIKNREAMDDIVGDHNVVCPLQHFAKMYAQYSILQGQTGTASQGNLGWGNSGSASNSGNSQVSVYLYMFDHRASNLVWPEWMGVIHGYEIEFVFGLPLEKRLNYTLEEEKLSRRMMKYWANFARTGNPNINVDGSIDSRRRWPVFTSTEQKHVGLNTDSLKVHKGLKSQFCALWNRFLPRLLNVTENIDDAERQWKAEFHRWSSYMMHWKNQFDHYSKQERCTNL
# T1 sequence (P81908 whole entry): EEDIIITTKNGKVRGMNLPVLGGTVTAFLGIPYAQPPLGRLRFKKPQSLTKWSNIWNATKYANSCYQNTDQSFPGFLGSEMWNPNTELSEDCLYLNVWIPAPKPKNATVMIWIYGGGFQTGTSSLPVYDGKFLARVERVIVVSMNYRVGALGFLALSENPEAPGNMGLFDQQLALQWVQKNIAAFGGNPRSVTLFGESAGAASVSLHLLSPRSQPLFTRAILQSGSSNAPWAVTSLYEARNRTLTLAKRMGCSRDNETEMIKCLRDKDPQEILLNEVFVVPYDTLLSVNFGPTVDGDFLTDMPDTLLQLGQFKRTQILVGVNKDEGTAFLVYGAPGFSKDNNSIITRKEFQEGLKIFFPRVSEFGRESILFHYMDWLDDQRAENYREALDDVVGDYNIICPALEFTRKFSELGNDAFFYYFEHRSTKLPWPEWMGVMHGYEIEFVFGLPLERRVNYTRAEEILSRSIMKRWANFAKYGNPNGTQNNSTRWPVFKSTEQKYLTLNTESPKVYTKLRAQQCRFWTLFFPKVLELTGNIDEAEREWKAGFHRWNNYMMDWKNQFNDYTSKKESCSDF
structure (smiles),measurement,setting,value
"Cc1ccn2cc(C34CC5CC(CC(C5)C3)C4)nc2c1.O [Compound 2c, 2-(adamantan-1-yl)-7-methylimidazo[1,2-a]pyridine hydrate]",IC50,[1]; [3],> 2000 µM
same,IC50,[2]; [4],270 µM
same,IC50,[2]; [5],252 µM
same,AChE % inhibition,"[2]; conc 25 (µg/mL), single read",20.55% and 27.0778% and 32.32%
same,AChE % inhibition,"[2]; conc 50 (µg/mL), single read",41.33% and 47.36% and 42.61%
same,AChE % inhibition,"[2]; conc 100 (µg/mL), single read",56.96% and 48.25% and 49.14%
same,AChE % inhibition,"[2]; conc 150 (µg/mL), single read",68.34% and 71.41% and 72.20%
same,AChE % inhibition,"[2]; conc 200 (µg/mL), single read",71.21% and 69.72% and 76.25%
same,AChE % inhibition,"[2]; conc 250 (µg/mL), single read",76.15% and 78.73% and 78.33%
same,IC50,[2]; [6],293 µM
same,IC50,[2]; [7],270 ± 21 µM
same,IC50,[2]; [8],267 µM
same,IC50,[2]; [9],249 µM
same,IC50,"[2]; single read, unit not printed at place (µg/mL), read-out: AChE IC50 from regression on raw-data page (converted)",274 µM
same,IC50,[2]; [10],250 µM
same,IC50,[2]; [11],234 µM
"Cc1cccn2cc(-c3ccc(Br)cc3)nc12 [Compound 2o, 2-(4-bromophenyl)-8-methylimidazo[1,2-a]pyridine]",IC50,[1]; [3],> 2000 µM
same,IC50,[2]; [7],> 2000 µM
"Cc1ccc2nc(-c3ccc(-c4ccccc4)cc3)cn2c1 [Compound 2h, 2-([1,1′-biphenyl]-4-yl)-6-methylimidazo[1,2-a]pyridine]",IC50,[1]; [12],484 µM
same,IC50,"[1]; average of three reads, read-out: BChE IC50 (µM) Average",496 µM
same,IC50,"[1]; average of three reads, read-out: BChE IC50 (µg/mL) Average (converted)",496 µM
same,BChE % inhibition,[1]; conc 50 (µg/mL),28.12% and 20.13% and 20.63%
same,BChE % inhibition,[1]; conc 100 (µg/mL),19.13% and 27.12% and 17.64%
same,BChE % inhibition,[1]; conc 150 (µg/mL),48.09% and 45.09% and 49.08%
same,BChE % inhibition,[1]; conc 200 (µg/mL),83.03% and 81.03% and 75.54%
same,BChE % inhibition,[1]; conc 250 (µg/mL),102.50% and 115.97% and 86.02%
same,IC50,"[1]; first read, read-out: BChE IC50 (µM) First read",485 µM
same,IC50,"[1]; first read, read-out: BChE IC50 (µg/mL) First read (converted)",484 µM
same,IC50,[1]; [3],496 ± 27 µM
same,IC50,"[1]; second read, read-out: BChE IC50 (µM) Second read",477 µM
same,IC50,"[1]; second read, read-out: BChE IC50 (µg/mL) Second read (converted)",476 µM
same,IC50,"[1]; third read, read-out: BChE IC50 (µM) Third read",528 µM
same,IC50,"[1]; third read, read-out: BChE IC50 (µg/mL) Third read (converted)",527 µM
same,IC50,[2]; [4],79.2 µM
same,IC50,[2]; [5],79.1 µM
same,AChE % inhibition,"[2]; conc 25 (µg/mL), single read",58.20% and 76.39% and 68.79%
same,AChE % inhibition,"[2]; conc 50 (µg/mL), single read",92.28% and 79.96% and 93.21%
same,AChE % inhibition,"[2]; conc 75 (µg/mL), single read",92.40% and 88.83% and 96.55%
same,AChE % inhibition,"[2]; conc 100 (µg/mL), single read",99.77% and 84.22% and 106.56%
same,IC50,[2]; [6],83.8 µM
same,IC50,[2]; [13],83.7 µM
same,IC50,[2]; [7],79 ± 10 µM
same,IC50,[2]; [8],86.3 µM
same,IC50,[2]; [9],86.2 µM
same,IC50,[2]; [10],67.4 µM
same,IC50,[2]; [11],67.3 µM
"c1ccc(-c2ccc(-c3cn4ccccc4n3)cc2)cc1 [Compound 2f, 2-([1,1′-biphenyl]-4-yl)imidazo[1,2-a]pyridine]",IC50,[1]; [3],> 2000 µM
same,IC50,[2]; [4],208 µM
same,IC50,[2]; [5],208 µM
same,AChE % inhibition,"[2]; conc 30 (µg/mL), single read",-1.6523% and -0.07%
same,AChE % inhibition,"[2]; conc 40 (µg/mL), single read",19.47% and 31.90% and 23.42%
same,AChE % inhibition,"[2]; conc 60 (µg/mL), single read",46.62% and 65.66% and 72.27%
same,AChE % inhibition,"[2]; conc 70 (µg/mL), single read",57.54% and 72.63% and 80.68%
same,AChE % inhibition,"[2]; conc 80 (µg/mL), single read",86.28% and 82.61% and 80.17%
same,IC50,[2]; [6],228 µM
same,IC50,[2]; [13],228 µM
same,IC50,[2]; [7],208 ± 17 µM
same,IC50,[2]; [8],196 µM
same,IC50,[2]; [9],196 µM
same,IC50,[2]; [10],200 µM
same,IC50,[2]; [11],200 µM
"Cc1cccn2cc(-c3ccc(Cl)cc3)nc12 [Compound 2n, 2-(4-chlorophenyl)-8-methylimidazo[1,2-a]pyridine]",IC50,[1]; [12],737 µM
same,BChE % inhibition,[1]; conc 25 (µg/mL),10.83% and 20.0586% and 13.47%
same,BChE % inhibition,[1]; conc 100 (µg/mL),42.02% and 27.53% and 43.78%
same,BChE % inhibition,[1]; conc 150 (µg/mL),45.53% and 45.97% and 50.81%
same,BChE % inhibition,[1]; conc 200 (µg/mL),56.52% and 54.76% and 59.15%
same,BChE % inhibition,[1]; conc 250 (µg/mL),63.98% and 61.79%
same,IC50,[1]; [3],722 ± 48 µM
same,IC50,[2]; [7],> 2000 µM
"COc1ccc(-c2cn3cccc(C)c3n2)cc1 [Compound 2m, 2-(4-methoxyphenyl)-8-methylimidazo[1,2-a]pyridine]",IC50,[1]; [3],> 2000 µM
same,IC50,[2]; [7],> 2000 µM
"Cc1ccc2nc(C34CC5CC(CC(C5)C3)C4)cn2c1 [Compound 2d, 2-(adamantan-1-yl)-6-methylimidazo[1,2-a]pyridine]",IC50,[1]; [3],> 2000 µM
same,IC50,[2]; [7],> 2000 µM
